This passage reports IC50 results from ChEMBL document CHEMBL2321799 (J Med Chem, 2013).

This assay addresses T1, Ephrin type-B receptor 1 (Homo sapiens, UniProt P54762).
T1 sequence (P54762 whole entry): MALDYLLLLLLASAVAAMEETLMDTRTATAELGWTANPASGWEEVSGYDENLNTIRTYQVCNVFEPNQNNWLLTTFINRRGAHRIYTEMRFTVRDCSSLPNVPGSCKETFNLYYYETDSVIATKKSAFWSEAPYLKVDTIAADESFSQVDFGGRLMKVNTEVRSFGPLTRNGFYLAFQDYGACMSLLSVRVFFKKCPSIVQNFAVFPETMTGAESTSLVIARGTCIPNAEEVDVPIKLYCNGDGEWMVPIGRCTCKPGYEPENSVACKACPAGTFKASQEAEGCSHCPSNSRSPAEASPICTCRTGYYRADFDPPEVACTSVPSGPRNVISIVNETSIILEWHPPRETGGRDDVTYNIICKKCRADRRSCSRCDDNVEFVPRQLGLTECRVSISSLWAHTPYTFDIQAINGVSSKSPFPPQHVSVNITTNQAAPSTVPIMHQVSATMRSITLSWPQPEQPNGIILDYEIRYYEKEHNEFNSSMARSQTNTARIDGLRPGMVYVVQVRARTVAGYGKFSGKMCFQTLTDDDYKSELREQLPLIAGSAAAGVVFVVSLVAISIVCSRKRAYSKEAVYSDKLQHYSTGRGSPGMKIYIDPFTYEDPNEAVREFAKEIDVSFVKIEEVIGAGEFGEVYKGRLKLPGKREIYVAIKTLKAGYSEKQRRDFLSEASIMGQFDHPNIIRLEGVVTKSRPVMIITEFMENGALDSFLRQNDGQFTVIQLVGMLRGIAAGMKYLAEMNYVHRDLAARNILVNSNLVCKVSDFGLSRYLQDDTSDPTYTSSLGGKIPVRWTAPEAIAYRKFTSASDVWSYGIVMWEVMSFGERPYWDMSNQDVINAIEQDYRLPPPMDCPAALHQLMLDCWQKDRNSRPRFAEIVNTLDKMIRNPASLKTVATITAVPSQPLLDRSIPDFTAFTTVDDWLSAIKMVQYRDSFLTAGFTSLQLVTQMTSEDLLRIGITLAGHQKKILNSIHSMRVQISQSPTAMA
The assay can be described thus: Displacement of ephrin-B1-Fc from EphB1 receptor Fc ectodomain (unknown origin) after 1 hr by ELISA.

`C[C@H](CCC(=O)N[C@@H](Cc1c[nH]c2ccccc12)C(=O)O)[C@H]1CC[C@H]2[C@@H]3CC[C@@H]4C[C@H](O)CC[C@]4(C)[C@H]3CC[C@]12C` had an IC50 of 3.8 µM.
